The assay has as its target PI3K-γ (Homo sapiens, UniProt P48736). The assay is described as follows: PI3K Inhibition Assay (33P-ATP, PI(4,5)P2 substrate, filter plate scintillation counting). The settings on record: competitive tight binding Ki fit; 3 μM ATP, 30 μM PI(4,5)P2, 2 nM final enzyme, 30 min at 25° C.; read-out: Ki for the inhibition of PI3Ky. Format: biochemical. The procedure:
One test well also contained 1.5 μL of DMSO with no compound. […] To initiate the reaction, 50 μL of ATP Mix [20 mM MgCl2, 6 μM ATP (100 μCi/μmole ^33P-ATP)] was added each well, followed by incubating the wells for 30 min. at 25° C. Final concentrations in each well were 50 mM HEPES 7.5, 10 mM MgCl2, 25 mM NaCl, 5 mM DTT, 0.1 mg/mL BSA, 30 μM PI(4,5)P2, 3 μM ATP, and the PI3K isoform of interest (see Table 3). Final compound concentrations in each well ranged from 10 μM to 1 nM.
After incubation, the reactions in each well were quenched by addition of 50 μL of stop solution [30% TCA/Water, 10 mM ATP]. […] 50 μL of scintillation fluid was added to each well and the plate read on a Perkin-Elmer TopCount™ NXT liquid scintillation counter to obtain ^33P-counts representing inhibition values.

Each structure is given as a SMILES string. Where only a bound is given, the exact number is not on record here.

Chain of PI3K-γ (P48736 whole entry, species assumed, canonical isoform): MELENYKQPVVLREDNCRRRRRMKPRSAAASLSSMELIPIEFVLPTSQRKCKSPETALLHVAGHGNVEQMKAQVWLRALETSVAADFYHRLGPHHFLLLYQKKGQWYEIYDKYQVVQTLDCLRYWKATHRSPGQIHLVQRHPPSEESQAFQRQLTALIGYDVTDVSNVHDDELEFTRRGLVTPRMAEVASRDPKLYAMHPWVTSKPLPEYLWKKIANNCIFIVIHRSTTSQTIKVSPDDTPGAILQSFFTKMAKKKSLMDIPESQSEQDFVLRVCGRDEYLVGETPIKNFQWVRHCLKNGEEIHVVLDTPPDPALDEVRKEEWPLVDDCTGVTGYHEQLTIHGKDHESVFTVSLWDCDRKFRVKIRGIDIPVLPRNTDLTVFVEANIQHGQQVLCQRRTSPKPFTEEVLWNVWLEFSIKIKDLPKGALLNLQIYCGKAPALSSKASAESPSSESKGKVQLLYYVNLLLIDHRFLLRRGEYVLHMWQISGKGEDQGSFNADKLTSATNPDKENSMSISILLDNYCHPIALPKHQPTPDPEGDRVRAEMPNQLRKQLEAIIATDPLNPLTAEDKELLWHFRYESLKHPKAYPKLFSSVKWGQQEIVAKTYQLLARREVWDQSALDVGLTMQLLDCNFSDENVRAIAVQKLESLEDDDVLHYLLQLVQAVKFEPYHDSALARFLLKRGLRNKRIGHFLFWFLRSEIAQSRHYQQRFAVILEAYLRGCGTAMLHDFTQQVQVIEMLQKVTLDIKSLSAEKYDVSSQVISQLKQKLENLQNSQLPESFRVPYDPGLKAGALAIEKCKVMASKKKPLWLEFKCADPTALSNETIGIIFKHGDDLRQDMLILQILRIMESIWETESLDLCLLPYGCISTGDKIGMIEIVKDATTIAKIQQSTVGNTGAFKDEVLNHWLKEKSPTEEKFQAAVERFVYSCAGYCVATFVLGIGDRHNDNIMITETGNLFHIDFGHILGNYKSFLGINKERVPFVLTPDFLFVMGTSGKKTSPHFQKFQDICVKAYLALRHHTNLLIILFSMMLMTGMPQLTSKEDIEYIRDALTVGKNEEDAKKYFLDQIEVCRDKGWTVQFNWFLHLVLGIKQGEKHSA

`CCOCCNC(=O)Nc1nc(C)c(C#Cc2ccncc2)s1` [Compound 26]: the Ki was below 50 nM.

As a reminder, the Ki is a measure of affinity in units of concentration, obtained from inhibition or displacement.
